The test concerns P388 leukemia ip, CD2F1 mice, survival T/C. The test can be described thus: NCI In Vivo Anticancer Drug Screen. Data for tumor model P388 Leukemia (intraperitoneal) in CD2F1 (CDF1) mice. The note with it: endpoint: median survival time, higher = longer survival. A digest of the protocol:
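Mice carrying the transplanted tumor received test compound or vehicle. Survival was recorded in each group, and the value is the treated-group measurement divided by that of the vehicle-treated control group.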

Setting [1] is: dose: 50.0 mg/kg/injection, schedule: Q01DX005 (ip), vehicle: Klucel (hydroxypropylcellulose) (HPC).
[2] abbreviates: dose: 100.0 mg/kg/injection, schedule: Q01DX005 (ip), vehicle: Klucel (hydroxypropylcellulose) (HPC).
[3] abbreviates: dose: 200.0 mg/kg/injection, schedule: Q01DX005 (ip), vehicle: Klucel (hydroxypropylcellulose) (HPC).
Setting [4] is: dose: 50.0 mg/kg/injection, schedule: Q01DX005 (ip), vehicle: saline with Tween-80.
The mark [5] stands for this setting: dose: 100.0 mg/kg/injection, schedule: Q01DX005 (ip), vehicle: saline with Tween-80.
Setting [6] is: dose: 200.0 mg/kg/injection, schedule: Q01DX005 (ip), vehicle: saline with Tween-80.
The mark [7] stands for this setting: dose: 60.0 mg/kg/injection, schedule: Q01DX005 (ip), vehicle: saline with Tween-80.
Setting [8] is: dose: 120.0 mg/kg/injection, schedule: Q01DX005 (ip), vehicle: saline with Tween-80.
[9] abbreviates: dose: 240.0 mg/kg/injection, schedule: Q01DX005 (ip), vehicle: saline with Tween-80.
[10] abbreviates: dose: 50.0 mg/kg/injection, schedule: Q01DX009 (ip), vehicle: Klucel (hydroxypropylcellulose) (HPC).

The structures appear in SMILES notation. Values joined by “and” are separate entries in the source; they are usually repeats but may differ in a detail not shown here. Equal values may be shown once. Inconclusive results and toxic doses are left out.

This passage reports T/C results from PubChem BioAssay AID330 (DTP/NCI, 2004).

On to `O=C(O)C1CC(c2ccccc2)=NN1c1ccccc1` (configuration not stated), for which the T/C is, setting by setting: (dose: 12.5 mg/kg/injection, schedule: Q01DX009 (ip), vehicle: water) 99 % of control; (dose: 25.0 mg/kg/injection, schedule: Q01DX009 (ip), vehicle: water) 98 % of control; (dose: 50.0 mg/kg/injection, schedule: Q01DX009 (ip), vehicle: water) 103 % of control; (dose: 88.0 mg/kg/injection, schedule: Q01DX009 (ip), vehicle: water) 112 % of control and 120 % of control; (dose: 100.0 mg/kg/injection, schedule: Q01DX009 (ip), vehicle: water) 109 % of control; (dose: 133.0 mg/kg/injection, schedule: Q01DX009 (ip), vehicle: water) 119 % of control and 124 % of control. In addition, the T/C runs as follows: (dose: 200.0 mg/kg/injection, schedule: Q01DX009 (ip), vehicle: water) 123 % of control; (dose: 300.0 mg/kg/injection, schedule: Q01DX009 (ip), vehicle: water) 122 % of control.

As to `CC/C=C/C(O)C(O)C1=C(C)C(=O)C2(O1)C(=O)NC(OC)(C(=O)c1ccccc1)C2O` (configuration not stated), the T/C is, setting by setting: (dose: 12.5 mg/kg/injection, schedule: Q01DX005 (ip), vehicle: Klucel (hydroxypropylcellulose) (HPC)) 99 % of control; (dose: 25.0 mg/kg/injection, schedule: Q01DX005 (ip), vehicle: Klucel (hydroxypropylcellulose) (HPC)) 99 % of control; under setting [1], 94 % of control; under setting [2], 96 % of control; (dose: 150.0 mg/kg/injection, schedule: Q01DX005 (ip), vehicle: Klucel (hydroxypropylcellulose) (HPC)) 103 % of control; under setting [3], 106 % of control.

With `COCCN1C(N)=C(C#N)N=C2CCCC(N=C(C#N)C#N)=C21`, the T/C is 100 % of control under setting [4], 107 % of control under setting [5] and 101 % of control under setting [6].

In the case of `CC(C)(C)/C=C/N1N=NC(c2ccccc2)(c2ccccc2)C1=O`, the T/C was 91 % of control under setting [1], 92 % of control under setting [2] and 96 % of control under setting [3].

Take `O=C1C=CC(=Nc2cc3c(cc2Br)-c2ccccc2C3=O)O1`: the T/C was 100 % of control and 98 % of control (dose: 3.12 mg/kg/injection, schedule: Q01DX005 (ip), vehicle: saline with Tween-80); 100 % of control and 104 % of control (dose: 6.25 mg/kg/injection, schedule: Q01DX005 (ip), vehicle: saline with Tween-80); 104 % of control and 105 % of control (dose: 12.5 mg/kg/injection, schedule: Q01DX005 (ip), vehicle: saline with Tween-80); 104 % of control and 106 % of control and 117 % of control (dose: 25.0 mg/kg/injection, schedule: Q01DX005 (ip), vehicle: saline with Tween-80); 103 % of control and 105 % of control under setting [4]; 104 % of control under setting [5].

Take `c1nnc(NC(Nc2nncs2)C2CCCCC2)s1`: the T/C runs as follows: (dose: 30.0 mg/kg/injection, schedule: Q01DX005 (ip), vehicle: saline with Tween-80) 98 % of control; under setting [7], 95 % of control; under setting [8], 90 % of control and 92 % of control; under setting [9], 121 % of control.

For `Nc1nnc(-c2ccc(-c3nnc(N)o3)cc2)o1`, the T/C by setting is: under setting [7], 98 % of control; under setting [8], 100 % of control; under setting [9], 100 % of control.

As for `CC(=O)N(C(C)=O)c1ccc(C)cc1`, the T/C by setting is: (dose: 12.5 mg/kg/injection, schedule: Q01DX009 (ip), vehicle: Klucel (hydroxypropylcellulose) (HPC)) 94 % of control; (dose: 25.0 mg/kg/injection, schedule: Q01DX009 (ip), vehicle: Klucel (hydroxypropylcellulose) (HPC)) 94 % of control; under setting [10], 100 % of control.

`CN(Cc1cnc2nc(N[Si](C)(C)C)nc(N[Si](C)(C)C)c2n1)c1ccc(C(=O)NC(CCC(=O)O[Si](C)(C)C)C(=O)O[Si](C)(C)C)cc1` (configuration not stated): the T/C (dose: 0.63 mg/kg/injection, schedule: Q01DX009 (ip), vehicle: saline) was 165 % of control; the T/C (dose: 1.25 mg/kg/injection, schedule: Q01DX009 (ip), vehicle: saline) was 191 % of control; the T/C (dose: 1.9 mg/kg/injection, schedule: Q04DX003 (ip), vehicle: saline) was 159 % of control; the T/C (dose: 2.5 mg/kg/injection, schedule: Q01DX009 (ip), vehicle: saline) was 226 % of control; the T/C (dose: 3.8 mg/kg/injection, schedule: Q04DX003 (ip), vehicle: saline) is 177 % of control; the T/C (dose: 7.5 mg/kg/injection, schedule: Q04DX003 (ip), vehicle: saline) was 195 % of control. Also, the T/C (dose: 15.0 mg/kg/injection, schedule: Q04DX003 (ip), vehicle: saline) was 218 % of control; the T/C (dose: 30.0 mg/kg/injection, schedule: Q04DX003 (ip), vehicle: saline) is 236 % of control; the T/C (dose: 60.0 mg/kg/injection, schedule: Q04DX003 (ip), vehicle: saline) is 109 % of control.

On to `O=C1CC(C2CCCCC2)C(=O)c2cc3cccnc3c(O)c21` (configuration not stated), for which the T/C runs as follows: under setting [4], 101 % of control; under setting [5], 99 % of control; under setting [6], 93 % of control.

As to `CC(NNC(=S)N1CCCC1)c1ccccn1` (configuration not stated), the T/C reads like this: under setting [4], 107 % of control; under setting [5], 105 % of control.

`CN(C)CCNc1cccc2c1C(=O)c1cccc(NCCN(C)C)c1C2=O`: the T/C by setting is: (dose: 1.88 mg/kg/injection, schedule: Q01DX009 (ip), vehicle: water) 99 % of control; (dose: 3.75 mg/kg/injection, schedule: Q01DX009 (ip), vehicle: saline) 101 % of control; (dose: 3.75 mg/kg/injection, schedule: Q01DX009 (ip), vehicle: water) 98 % of control; (dose: 7.5 mg/kg/injection, schedule: Q01DX009 (ip), vehicle: saline) 102 % of control; (dose: 7.5 mg/kg/injection, schedule: Q01DX009 (ip), vehicle: water) 110 % of control; (dose: 15.0 mg/kg/injection, schedule: Q01DX009 (ip), vehicle: saline) 98 % of control. Besides, the T/C by setting is: (dose: 15.0 mg/kg/injection, schedule: Q01DX009 (ip), vehicle: water) 108 % of control; (dose: 30.0 mg/kg/injection, schedule: Q01DX009 (ip), vehicle: water) 106 % of control.

For `CCC[CH2][Sn]([CH2]CCC)([S]CC(=O)OC)[S]CC(=O)OC`, the T/C reads like this: (dose: 1.56 mg/kg/injection, schedule: Q01DX001 (ip), vehicle: Klucel (hydroxypropylcellulose) (HPC)) 110 % of control; (dose: 3.12 mg/kg/injection, schedule: Q01DX001 (ip), vehicle: Klucel (hydroxypropylcellulose) (HPC)) 111 % of control; (dose: 6.25 mg/kg/injection, schedule: Q01DX001 (ip), vehicle: Klucel (hydroxypropylcellulose) (HPC)) 96 % of control; (dose: 12.5 mg/kg/injection, schedule: Q01DX001 (ip), vehicle: Klucel (hydroxypropylcellulose) (HPC)) 106 % of control; (dose: 25.0 mg/kg/injection, schedule: Q01DX001 (ip), vehicle: Klucel (hydroxypropylcellulose) (HPC)) 115 % of control.

For `CC(C)(C)c1cc(C(C)(C)C)c(P(C(O[Si](C)(C)C)=C(c2ccccc2)c2ccccc2)C(O[Si](C)(C)C)=C(c2ccccc2)c2ccccc2)c(C(C)(C)C)c1`, the T/C runs as follows: under setting [7], 94 % of control; under setting [8], 99 % of control; under setting [9], 93 % of control.

Take `C[N+]1=C(/C=C/Nc2cc3c4ccccc4ccc3c3ccccc23)C(C)(C)c2ccccc21`: the T/C under setting [10] was 117 % of control; the T/C (dose: 100.0 mg/kg/injection, schedule: Q01DX009 (ip), vehicle: Klucel (hydroxypropylcellulose) (HPC)) was 119 % of control; the T/C (dose: 200.0 mg/kg/injection, schedule: Q01DX009 (ip), vehicle: Klucel (hydroxypropylcellulose) (HPC)) is 117 % of control.

With `c1ccc2c(c1)ccc1cccnc12`, the T/C by setting is: under setting [4], 93 % of control; under setting [5], 93 % of control; under setting [6], 102 % of control.

For the compound `C#CCN1C(=O)N(CC#C)C(=O)C(CC#C)(C(CC=C)c2ccccc2)C1=O` (configuration not stated), the T/C is 100 % of control under setting [7], 100 % of control under setting [8] and 96 % of control under setting [9].

`COc1ccc2sc3c(C)ccc(NCCC4CCCN5CCCCC45)c3c(=O)c2c1` (configuration not stated): the T/C by setting is: (dose: 100.0 mg/kg/injection, schedule: Q01DX001 (ip), vehicle: saline with Tween-80) 87 % of control; (dose: 200.0 mg/kg/injection, schedule: Q01DX001 (ip), vehicle: saline with Tween-80) 87 % of control.
